# Experimental data from patent publication US11952387B2, “Bicyclic heteroaromatic ring derivative” (priority 2018, dated 2024).
# System: HRV14
# Experiment: Inhibitory activity against human rhinovirus infection and replication (quantitative real-time PCR)
# Format: cell-based
# Settings: Human rhinovirus sp., MRC5; 100 nmol/L test compound; MRC-5 cells infected with HRV14 at MOI=0.2; 48 hours; viral load normalized to 18s rRNA; read-out: Percent Inhibition
# Method in brief: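 Near-confluent MRC-5 cells were pretreated 30 min with compound at 100 or 1000 nmol/L, then infected with HRV14 (MOI 0.2) in compound-containing medium (2% FBS, 30 mmol/L MgCl2) and cultured 48 h at 35 °C. HRV14 RNA by qRT-PCR, normalized to 18S rRNA; percent inhibition versus untreated infected cells.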
row,Compound,inhibition at 0.1 µM
1,COc1ccc(-c2c(C)nc3sc(C(C)(C)O)nn23)cc1S(=O)(=O)N[C@H]1C[C@@H](O)C1 [Example 21-10],≤ 50%
2,COc1ccc(-c2c(C)nc3sc(C(C)(C)O)nn23)cc1S(=O)(=O)NC12CCC(O)(CC1)CC2 [Example 21-11],≤ 50%
3,COc1ccc(-c2c(C)nc3sc(C(C)(C)O)nn23)cc1S(=O)(=O)N[C@H]1CC[C@](C)(O)CC1 [Example 21-12],50 to 80%
4,COc1ccc(-c2c(C)nc3sc(C(C)(C)O)nn23)cc1S(=O)(=O)N[C@H]1CC[C@@](C)(O)CC1 [Example 21-13],≤ 50%
5,COc1ccc(-c2c(C)nc3sc(C(C)(C)O)nn23)cc1S(=O)(=O)NC1(C)CCC(O)CC1 (stereo not drawn) [Example 21-14],> 80%
6,COc1ccc(-c2c(C)nc3sc(C(C)(C)O)nn23)cc1S(=O)(=O)NC1(CO)CC(F)(F)C1 [Example 21-15],> 80%
7,COc1ccc(-c2c(C)nc3sc(C(C)(C)O)nn23)cc1S(=O)(=O)NCC(O)C(F)(F)F (stereo not drawn) [Example 21-16],50 to 80%
8,COc1ccc(-c2c(C)nc3sc(C(C)(C)O)cn23)cc1S(=O)(=O)Nc1ccc(O)cc1 [Example 21-18],50 to 80%
9,COc1ccc(-c2c(C)nc3sc(C(C)(C)O)cn23)cc1S(=O)(=O)Nc1ccc(F)cc1 [Example 21-19],50 to 80%
10,COc1ccc(-c2c(C)nc3sc(C(C)(C)O)nn23)cc1S(=O)(=O)Nc1ccc(C#N)cc1 [Example 21-20],≤ 50%
11,COc1ccc(-c2c(C)nc3sc(C4(O)CC4)cn23)cc1S(=O)(=O)N[C@H]1CC[C@@H](O)CC1 [Example 22],≤ 50%
12,COc1ccc(-c2c(C)nc3sc(C(C)(C)O)nn23)cc1S(=O)(=O)NC1(C(C)(C)O)CC1 [Example 23],> 80%
13,COc1ccc(-c2c(C)nc3sc(C(C)(C)O)cn23)cc1S(=O)(=O)N(C)[C@H]1CC[C@@H](O)CC1 [Example 24],≤ 50%
14,C=C(C)c1cn2c(-c3ccc(OC)c(S(=O)(=O)N[C@H]4CC[C@@H](O)CC4)c3)c(C)nc2s1 [Example 25],50 to 80%
15,COc1ccc(-c2c(C)nc3sc(C(C)(C)O)nn23)cc1S(=O)(=O)Cc1ccc(N)cc1 [Example 26],≤ 50%
